Reference: US20090036540A1, “Guanylhydrazones in Methods of Treatment or Diagnosis as Modulators of Signal Transduction” (Cytokine PharmaSciences, Inc., priority 2003, published 2009)
“Also recorded” adds a separate entry of the source.

Experiments:
4/4 macrophages = test: Cytotoxic effect in 4/4 macrophages; format: cell-based, murine; settings: Semapimod concentrations ≦1 μM
pMek1/2 = test: Immunohistochemistry of biopsies from Crohn's disease patients for pMek1/2 expression; format: in vivo, human; settings: before vs after treatment
Method: Biopsies obtained from Crohn's disease patients (before and after Semapimod treatment) who participated in the Semapimod-pilot study in the AMC, were analyzed by immunohistochemistry.
Biopsies obtained from Crohn's disease patients (before and after treatment) who participated in the Semapimod-pilot study performed in our department, were analyzed for pMek1/2 expression (the substrate of Raf) by immunohistochemistry (FIGS. 8-9).

[1] = system: Peripheral Blood Mononuclear Cells; test: PepChip kinome array: in vitro phosphorylation of peptide array by lysates of LPS-stimulated PBMCs; format: cell-based, human; settings: PBMC lysate, 1.0 μM CNI-1493, 100 ng/ml LPS
Method: Peripheral Blood Mononuclear Cells (PBMCs) were isolated from peripheral blood from healthy volunteers using standard density-gradient centrifugation over Ficoll-Paque Plus (Amersham Pharmacia Biotech AB, Uppsala, Sweden) after washing in resuspension in IMDM supplemented with 10% FBS, penicillin, streptomycin and amphotericin (hereafter referred to as complete IMDM).
For kinome array samples, 10^7 PBMCs were suspended in 5 ml media (IMDM supplemented with 1.0% human serum). LPS stimulation consisted of a […] (37° C., 5% CO2) with 100 ng/ml LPS (E. coli, serotype 0111:B4). CNI treated PBMCs were maintained in media dosed with 1.0 μM CNI-1493 (Cytokine PharmaSciences, Inc.) 1 hour before and during incubation for LPS stimulation. Stimulations were terminated by an ice-cold PBS wash. PBMCs were lysed in 200 μl cell lysis buffer (20 mM Tris-HCl (pH 7.5), 150 mM NaCl, 1 mM Na2EDTA, 1 mM EGTA, 1% Triton, 2.5 mM sodium pyrophosphate, 1 mM MgCl2, 1 mM beta-glycerophosphate, 1 mM Na3VO4, 1 mM NaF, 1 μg/ml leupeptin, 1 μg/ml aprotinin, 1 mM PMSF) and the volume of the cell lysate were equalised with dH2O. The cell lysates were subsequently cleared on a 0.22 μm filter. PepChip incubation mix was produced by adding 10 μl of filter-cleared activation mix (50% glycerol, 50 μM ATP, 0.05% v/v Brij-35, 0.25 mg/ml BSA, ^33P-γ-ATP (1000 kBq)). Next, the PepChip mix is added onto the chip and the chip is kept at 37° C. in a humidified stove for 90 minutes. Subsequently, the PepChip was washed once with TBST, twice in 2M NaCl and twice in demineralised H2O and air-dry the PepChip slips. The experiments were performed three times in duplicate. The average inter-experimental variance in relative values was less than 5% for all spots.
The chips were exposed to a phosphoimager plate for 72 hours and the spots were analysed on AIDA analysing software. For graphical visualisation of the spots in FIG. 2 the data of four arrays was averaged to eliminate false positives.

Question: Which results are given for `C/C(=N\NC(=N)N)c1cc(NC(=O)CCCCCCCCC(=O)Nc2cc(/C(C)=N/NC(=N)N)cc(/C(C)=N/NC(=N)N)c2)cc(/C(C)=N/NC(=N)N)c1` [Semapimod]?
Answer: cytotoxic effect (4/4 macrophages): did not have a cytotoxic effect; pMek1/2 expression in biopsies, responders (pMek1/2; Crohn's disease patients who responded (n=5), p=0.0348): significant decrease; pMek1/2 expression in biopsies, nonresponder (pMek1/2; one nonresponder (patient 012)): increased pMek1/2 expression; also recorded: not affected; LPS + CNI: peptide phosphorylation, Kinase p34cdc2, Substrate Vimentin ([1]; Control 192, LPS 214): 300; LPS + CNI: peptide phosphorylation, Kinase CKII, Substrate Lamin B R ([1]; Control 214, LPS 1736): 250; LPS + CNI: peptide phosphorylation, Kinase p34cdc2, Substrate c-Src ([1]; Control 230, LPS 248): 270; LPS + CNI: peptide phosphorylation, Kinase CKII, Substrate TOPII ([1]; Control 231, LPS 900): 900; LPS + CNI: peptide phosphorylation, Kinase CKII, Substrate Lamin D ([1]; Control 242, LPS 822): 320; LPS + CNI: peptide phosphorylation, Kinase Auto, Substrate PKG ([1]; Control 246, LPS 8100): 320; LPS + CNI: peptide phosphorylation, Kinase GRK, Substrate Tau ([1]; Control 248, LPS 230): 250; LPS + CNI: peptide phosphorylation, Kinase JAK, Substrate STAT1a/b ([1]; Control 248, LPS 7704): 231; LPS + CNI: peptide phosphorylation, Kinase Cdc2, Substrate CKII ([1]; Control 268, LPS 1728): 265; LPS + CNI: peptide phosphorylation, Kinase CytoK Rec, Substrate FPS ([1]; Control 270, LPS 5512): 265; LPS + CNI: peptide phosphorylation, Kinase CK II?, Substrate TOPII ([1]; Control 274, LPS 280): 300; LPS + CNI: peptide phosphorylation, Kinase PKA, Substrate MBP ([1]; Control 280, LPS 1250): 265; LPS + CNI: peptide phosphorylation, Kinase Scr-family?, Substrate PTP-2C ([1]; Control 287, LPS 5960): 250; LPS + CNI: peptide phosphorylation, Kinase PKA, Substrate HSP27 ([1]; Control 288, LPS 1072): 298; LPS + CNI: peptide phosphorylation, Kinase PKC, Substrate HSP27 ([1]; Control 291, LPS 280): 300; LPS + CNI: peptide phosphorylation, Kinase PKA, Substrate v-Rel ([1]; Control 291, LPS 2574): 291; LPS + CNI: peptide phosphorylation, Kinase GSK3, Substrate GS ([1]; Control 312, LPS 320): 250; LPS + CNI: peptide phosphorylation, Kinase p34cdc2, Substrate CKII ([1]; Control 320, LPS 560): 291; LPS + CNI: peptide phosphorylation, Kinase PKA, Substrate Tau ([1]; Control 340, LPS 340): 250; LPS + CNI: peptide phosphorylation, Kinase PKA, Substrate c-Rel ([1]; Control 421, LPS 250): 261; LPS + CNI: peptide phosphorylation, Kinase p34cdc2, Substrate AP-1 ([1]; Control 460, LPS 548): 274; LPS + CNI: peptide phosphorylation, Kinase PKA, Substrate MBP ([1]; Control 536, LPS 822): 248; LPS + CNI: peptide phosphorylation, Kinase CaM-II, Substrate MBP ([1]; Control 600, LPS 265): 680; LPS + CNI: peptide phosphorylation, Kinase PKA, Substrate GS ([1]; Control 795, LPS 7980): 340; LPS + CNI: peptide phosphorylation, Kinase PKA/Ca2+, Substrate Trp-5-MO ([1]; Control 1164, LPS 23925): 1305; LPS + CNI: peptide phosphorylation, Kinase PKA, Substrate GS ([1]; Control 1440, LPS 1020): 3450; LPS + CNI: peptide phosphorylation, Kinase PKC, Substrate Lamin B1 ([1]; Control 2016, LPS 268): 1072; LPS + CNI: peptide phosphorylation, Kinase PKC, Substrate MBP ([1]; Control 2376, LPS 198): 319; LPS + CNI: peptide phosphorylation, Kinase PKA, Substrate P450 ([1]; Control 2412, LPS 19980): 265; LPS + CNI: peptide phosphorylation, Kinase PKC, Substrate ACC-a ([1]; Control 2750, LPS 10692): 861; LPS + CNI: peptide phosphorylation, Kinase CKII, Substrate TOPII ([1]; Control 3836, LPS 320): 291; LPS + CNI: peptide phosphorylation, Kinase Src, Substrate Annexin2 ([1]; Control 4438, LPS 8745): 287; LPS + CNI: peptide phosphorylation, Kinase PKC, Substrate EIF4E ([1]; Control 4494, LPS 41272): 6699; LPS + CNI: peptide phosphorylation, Kinase and Substrate not given ([1]; Control 4960, LPS 530): 254; LPS + CNI: peptide phosphorylation, Kinase CKI, Substrate GS ([1]; Control 5616, LPS 13386): 300; LPS + CNI: peptide phosphorylation, Kinase CaM-II, Substrate Vimentin ([1]; Control 6930, LPS 4147): 248; LPS + CNI: peptide phosphorylation, Kinase Lck/Fyn, Substrate MHC-I ([1]; Control 7040, LPS 1370): 230
